Data from US6974798B2, “Treatment of balance impairments” (Genentech, Inc., priority 1995, dated 2005).

What was measured:
hair cells = conditions: Warchol et al., 1993, Lefebvre et al.; cited from earlier work
[1] = system: vestibular ganglion neurons (VGNs); assay: Ototoxin-induced cell death of VGNs in culture; assay type: cell-based, rat
Method: The effects of trkB or trkC agonists to enhance neuronal survival was determined using VGNs in cell culture. VGN cell culture was prepared as follows. Vestibular ganglia were dissected from postnatal day 5 (P5) Wistar rats and were incubated in a mixture of 0.125% trypsin and 0.125% collagenase for 25 min at 37° C. The enzyme was inactivated with a mixture of 0.005% soybean trypsin inhibitor (Sigma) and 0.005% DNase (Worthington) before trituration with 0.05% DNase in Eagle's Basal Medium (“BME”). After the undissociated tissues were separated by filtering with a Nylon meshwork (33 μm in pore size), the dissociated cells were preplated on a 35 mm untreated tissue culture dish for 25 min to enrich the neuronal population. Under these experimental procedures, about 3-5% of the cell population were vestibular ganglion neurons (VGNs) as determined by immunocytochemistry with a monoclonal antibody (N52; Boehringer) against neurofilament (200 kd). The cell suspension was finally plated on polylysine (500 μg/ml)laminin (20 μg/ml) coated 16-well LabTek slides in 200 μl of serum-free medium (BME plus serum-free supplement (Sigma I-1884), 1% BSA, 2 mM glutamine, and 5 mg/ml glucose) containing no antibiotics. Cells were plated at a density of 100,000/well.
Cell counts and data analysis were performed as follows. After 2 days in culture, viable VGNs were identified by labeling with the neurofilament monoclonal antibody N52 and counted using a grid ocular reticule covering an area of 1 mm^2 under a Zeiss Axiophot microscope. For each culture, about 10 randomly selected fields were counted. In these experiments, cell counts were performed in the same way for control cultures. Data were collected from triplet cultures for each of the experimental groups. Data were then normalized as a percentage of the viable VGNs in the control cultures in each of the experiments.
The ability of trkB or trkC agonists to protect neurons from ototoxicity was determined using VGNs in cell culture. […] All human recombinant neurotrophins (Genentech, Inc.) were added to the cultures at the time of plating. […]

gentamicin
concentrations needed to destroy hair cells (hair cells): 500 to 1000 µg/mL
VGN death ([1]; 3 mgiml of gentamicin): a majority of VGNs died
inhibition of VGN survival by the ototoxin ([1]; added at plating at various concentrations, FIGS. 4 and 5): dose-dependent inhibition of VGN survival
concentrations at which induced VGN cell death was observed ([1]; present experiments): 1000 to 3000 µg/mL
